# Tests used:
# [1] = tested on: platelets in platelet rich plasma (ADP, collagen and TRAP agonists); assay: Platelet inhibition assay in platelet rich plasma (light transmission aggregometry, Chrono-Log System); format: cell-based, human; conditions: for inhibitory activity observed in PRP: any agonist tested (ADP, collagen, TRAP), compound 10, 25, 50 and 100 μM
# Protocol: (§1) Platelet function studies were performed simultaneously in both whole blood (using whole blood impedance platelet aggregometry with a Multiplate System) and platelet rich plasma (light transmission aggregometry with a Chrono-Log System). Blood was collected from healthy individuals into vacutainers containing 3.2% (w/v) citrate and was used within 3 hours of collection. Platelet rich plasma (“PRP”) was prepared by centrifugation at 170 g for 15 minutes, and the platelet count measured and adjusted to 250×109/L for use in the light transmission aggregometry studies.
# (§2) Each compound was tested at final concentrations of 10, 25, 50 and 100 μM. For each test, the compound was diluted 1/100 into the PRP or whole blood to obtain the final concentrations listed. The PRP or whole blood sample was allowed to stir in the aggregometer for 3 minutes prior to agonist addition. One compound was tested each day.
# (§3) As a positive control to verify the sensitivity to inhibition of thrombin receptor agonist peptide (TRAP)-mediated aggregation, TRAP-induced aggregations were also done in the presence of eptifibatide, a glycoprotein IIb/IIIa inhibitor (final concentration of 77 μg/mL in PRP and 65 μg/mL in whole blood).
# (§4) Materials used included: • The four channel light transmission aggregometer instrument used for the platelet rich plasma studies was from Chrono-Log Corporation. • The ADP and collagen agonists used for platelet rich plasma studies were from Chrono-Log Corporation. • The four channel Multiplate whole blood impedance platelet aggregometer (IPA) was from DiaPharma Group. • The ADP and collagen agonists used for the whole blood studies were provided by DiaPharma Group. The TRAP agonist used in both the whole blood and PRP studies was also obtained from DiaPharma Group.
# [2] = tested on: platelets in whole blood (ADP, collagen and TRAP agonists); assay: Platelet inhibition assay in whole blood (impedance platelet aggregometry, Multiplate System); format: cell-based, human; conditions: for dose dependence of the response in whole blood / reduction in response to agonists in whole blood (anti-platelet effect): all agonists; for dose dependence of the response in whole blood: 10-100 μM; for reduction in response to agonists in whole blood (anti-platelet effect): compound 10-100 μM
# Protocol: as §1, §2, §3, §4
# [3] = molecular target: T1, t-PA (degradation of fibrin by tissue plasminogen activator) (Homo sapiens, UniProt P00750); assay: Fibrinolysis assay, microtiter plate turbidity (clot lysis time); format: biochemical; conditions: 500 nM Glu-plasminogen
# T1 construct: purchased Genentech
# Protocol: (§5) Coagulation and fibrinolysis were studied simultaneously in a 96-well microtiter plate-based assay system. Varying concentrations of drug in 50 μl buffer or an equivalent volume of saline were added to the wells. To this was added 100 μl of 6 μM fibrinogen, 1 μM Glu-plasminogen and 4 mM CaCl2. Reactions were initiated by addition of 50 μl of buffer containing 2 nM t-PA and 20 nM thrombin. Final concentrations of reagents in the wells were 3 μM fibrinogen, 500 nM Glu-plasminogen, 2 mM CaCl2, 0.05 nM t-PA, 5 nM thrombin and compounds of Formulas (II), (Ill), (IV) or (V) (0-400 μM). As positive controls, hirudin or D-Phe-Pro-Arg chloromethylketone (PPACK) was used in place of the subject compounds. Plates were incubated at 23° C. for 1 h with constant shaking and turbidity was monitored continuously at 405 nm. Clot times and lysis times were determined using instrument soft wave as the times to half maximal increase and decrease in turbidity, respectively. Data are expressed as the mean±SEM of three experiments, each done in triplicate.
# [4] = molecular target: T2, thrombin (thrombin-mediated conversion of fibrinogen to fibrin) (Homo sapiens, UniProt P00734); assay: Coagulation assay, microtiter plate turbidity (clot formation, thrombin clot time); format: biochemical
# T2 construct: purchased Enzyme Research Laboratories
# Protocol: as §5, with “[…] […]” for “Final concentrations of reagents in the wells were 3 μM fibrinogen, 500 nM Glu-plasminogen, 2 mM CaCl2, 0.05 nM t-PA, 5 nM thrombin and compounds of Formulas (II), (Ill), (IV) or (V) (0-400 μM). As positive controls, hirudin or D-Phe-Pro-Arg chloromethylketone (PPACK) was used in place of the subject compounds.”
# [5] = tested at 0-100 nM, 5 nM thrombin
# T1 sequence (P00750 36-562): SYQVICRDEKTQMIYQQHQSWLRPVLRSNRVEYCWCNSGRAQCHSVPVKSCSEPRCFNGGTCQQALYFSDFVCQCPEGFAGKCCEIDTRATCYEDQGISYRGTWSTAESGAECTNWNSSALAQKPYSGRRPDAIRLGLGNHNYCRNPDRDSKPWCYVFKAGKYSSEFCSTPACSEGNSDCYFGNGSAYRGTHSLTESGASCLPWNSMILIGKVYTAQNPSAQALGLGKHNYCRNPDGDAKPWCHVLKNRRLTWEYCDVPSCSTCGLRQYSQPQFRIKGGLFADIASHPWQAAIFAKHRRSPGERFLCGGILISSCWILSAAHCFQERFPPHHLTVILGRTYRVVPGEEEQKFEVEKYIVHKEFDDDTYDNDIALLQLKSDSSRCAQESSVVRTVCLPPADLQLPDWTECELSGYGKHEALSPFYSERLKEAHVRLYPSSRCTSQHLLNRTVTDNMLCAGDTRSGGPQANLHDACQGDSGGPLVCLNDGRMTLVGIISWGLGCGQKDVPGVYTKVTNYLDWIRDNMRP
effect on clot lysis times [3],Molecule,inhibitory activity observed in PRP [1],dose dependence of the response in whole blood [2],reduction in response to agonists in whole blood (anti-platelet effect) [2],also measured
,"CSSc1ccncc1 [4-methyldisulfanyl-pyridine (II), 4-methyldisulfanyl-pyridine]",no inhibitory activity,does not appear to be dose dependent,reduction in response to all agonists,
,"CSSc1ccc(N)cc1 [4-methyldisulfanyl-phenylamine (IV), 4-methyldisulfanyl-phenylamine]",no inhibitory activity,does not appear to be dose dependent,Some reduction in response to all agonists,
,2-methyldisulfanyl-pyrimidine [2-methyldisulfanyl-pyrimidine (V)],,positive dose dependent inhibition,,"inhibitory activity observed in PRP at highest concentration ([1]; all agonists, highest concentration tested (100 μM)): surprising inhibitory activity; reduction of platelet response to all agonists in whole blood ([2]; 100 μM): approximately 50%"
,"CSSc1ccccn1 [2-methyldisulfanyl-pyridine (III), 2-methyldisulfanyl-pyridine]",no inhibitory activity,does not appear to be dose dependent,,reduction in response to all agonists in whole blood ([2]; not dose dependent (10-100 μM)): ~25%
lysis times were shortened,D-Phe-Pro-Arg chloromethylketone [PPACK],,,,
lysis times were shortened,hirudin,,,,"effect on clot formation and lysis profiles ([4]; compounds of the invention up to 400 μM, hirudin and PPACK as positive controls, 23° C., turbidity at 405 nm): inhibited clot formation and lysis; concentration causing complete inhibition of clotting [4, 5]: 25 nM; lowest concentration with measurable effect on clotting [4, 5]: 6.25 nM"

# Source: patent US20130203790A1, “SULFUR-CONTAINING COMPOUNDS AS ANTI-PROLIFERATIVE AGENTS” (221076 ONTARIO INC., priority 2011, published 2013)
